Data from patent publication US6525028B1, “Immunoeffector compounds” (Corixa Corporation, priority 2002, dated 2003).
Entries after “also recorded” stand apart in the source; their conditions may differ. Where a name gives a salt, the structure may show the parent alone.

Tests used:
[1] = system: hemagglutinin protein in FluZone influenza vaccine; assay: Adjuvant activity towards hemagglutinin protein in FluZone influenza vaccine, FluZone ELISA (Example 5); conditions: for Serum Titers IgG / Serum Titers IgG1 / Serum Titers IgG2a / Serum Titers IgG2b: s.c. 0.2 μg hemagglutinin in FluZone + 20 μg adjuvant day 0 and 14, pooled sera of 5 mice 14 days post secondary
Protocol: Groups of BALB/c mice (Jackson Laboratories Bar Harbor, Me.) 6-8 weeks old were injected subcutaneous with 0.2 μg hemagglutinin protein in FluZone influenza vaccine (Connaught Laboratories, Swiftwater, Pa.) ±20 μg adjuvant (MPL® immunostimulant orCompound II) on day 0 and day 14. […] The nonimmune controls were not vaccinated. The initial dilutions used on sera from test groups was 1:1600.

[2] = system: TNF-α; assay: Ex vivo cytokine induction, TNF-α by sandwich ELISA (Example 8); assay type: cell-based; conditions: human blood cells, 4 hr at 37° C.
Protocol: (§1) The effects of Compound II on the elaboration of TNF-α and IL-1β was measured under ex vivo conditions on human peripheral blood mononuclear cells. MPL® immunostimulant and Compound II were formulated in aqueous solutions of 0.2% TEoA/WFI.
(§2) Human whole blood was used to evaluate the ability of glycolipids (AGPS) to induce proinflammatory cytokines. Human whole blood is collected into heparinized tubes and 0.45 ml of whole blood is admixed with 0.05 ml phosphate buffered saline (PBS, pH 7.4) containing the glycolipid (i.e., the test compounds). The tubes are incubated for 4 hr at 37° C. on a shaker apparatus. The samples are then diluted with 1.5 ml sterile PBS and centrifuged. The supernatants are removed and analyzed for […] TNF-α and IL-1β by sandwich ELISA using R&D Systems' Quantikine immunoassay kits for human TNF-α and IL-1β.

[3] = Rabbit pyrogen test; assay type: in vivo, rabbits; conditions: for Pyrogenicity (total rise of 3 rabbits): total rise of 3 rabbits following i.v. 10 μg/Kg dose, solubilized in 10% EtOH/WFI, diluted with 5% dextrose in water
Description: In an effort to obtain an immunostimulant that has low pyrogenicity, synthetic molecules have been prepared which share structural similarities with the MPLO immunostimulant. These novel molecules which are collectively called aminoalkyl glucosaminide phosphates (AGPs), consist of an acylated […] moiety linked to an acylated aminoalkyl group (Johnson et al. (1999) Bioorg. Med. Chem. Lett. 9: 2273-2278; PCTAWO98/50399 and references therein). […] The substitution of different chemical moieties within the aminoalkyl structures was designed into the AGPs in anticipation of optimizing stability and solubility properties. Thus the AGPs can be broadly separated into several families based on the structure of their aminoalkyl groups. After initial biological evaluation, it became apparent that the aminoalkyl motifs could dramatically affect the pyrogenic properties of the AGPs (see U.S. patent application Ser. No. 09/074,720 filed May 7, 1998, and U.S. Pat. Nos. 6,113,918 and 6,303,347). As part of the initial screening process of the synthetic adjuvant compounds, rabbit pyrogenicity data was determined. […] Here we report on studies of the adjuvant properties of a class of AGPs which induce minimal activity in both the rabbit pyrogen test and the ex vivo cytokine assay.

[4] = system: HBsAg (Hepatitis B Surface Antigen); assay: Adjuvant activity towards HBsAg, serum titers by ELISA (Example 4); assay type: in vivo, BALB/c mice; conditions: for Serum Titers IgG / Serum Titers IgG1 / Serum Titers IgG2a / Serum Titers IgG2b: s.c. 2 μg HBsAg + 20 μg adjuvant day 0 and 21, pooled sera (5 mice/group) 21 days post-secondary
Protocol: Vaccines were prepared by mixing the adjuvant-containing TEoA (triethanolamine) formulations with recombinant HBsAg. Titers to HBsAg were determined by ELISA from pooled sera (5 mice/group) collected 21 days post-secondary vaccination (Table 1). The nonimmune controls were not vaccinated.

[5] = system: HBsAg; assay: Adjuvant activity towards HBsAg, IgG1 and IgG2a isotype titers by ELISA (Example 6); assay type: in vivo, BALB/c mice; conditions: for Serum Titers IgG1 / Serum Titers IgG2a: s.c. 2.0 μg HBsAg + 25 μg adjuvant day 0 and 21, pooled sera 21 days post secondary; for titers to HBsAg, in words: versus control group receiving antigen in PBS / positive control MPL
Protocol: Groups of BALB/c mice injected subcutaneous with 2.0 μg HBsAg(Rhein Americana, & Rhein Biotech) ±25 μg adjuvant (MPLO immunostinulant orCompound II) on day 0 and day 21. IgG1 and IgG2a isotype titers to HBsAg were determined by ELISA from pooled sera collected 21 days post secondary (Table 3). The nonimmune controls were not vaccinated.

[6] = system: IL-1β; assay: Ex vivo cytokine induction, IL-1β by sandwich ELISA (Example 8); assay type: cell-based, human; conditions: for relative induction of IL-1β: level induced with MPL immunostimulant assigned a value of 1
Protocol: as §1, §2

[7] = cited from earlier work
[8] = system: Inducible Nitric Oxide Synthase (iNOS); assay: iNOS induction in IFN-γ primed J774 murine macrophages, Greiss reagent nitrite release (Example 9); assay type: cell-based; conditions: IFN-γ primed J774 cells
Protocol: This example illustrates the effects of various glycolipids on iNOS induction in J774 murine macrophages. The murine macrophage cell line J774 can be primed by IFN-γ in vitro and is very responsive to subsequent LPS stimulation of iNOS upregulation as measured by a standard Greiss reagent ELISA assay procedure. The assay utilizes J774 cells seeded at 1×10^6/mL with 30 mL/flask and with IFN-γ added at 100 units/mL for 16-24 hrs. Cells are then harvested and washed and resuspended at 2×10^5/well in a 96-well plate and allowed to adhere. Glycolipid compounds are serially diluted into the wells for a test group and the resulting cultures are incubated for another 36-40 hrs before culture supernatants are collected from Greiss reagent analysis of nitrite release (Green et al. (1982) Anal. Biochem. 126: 131-138). Nitrite content closely parallels iNOS function.
Potency was determined as the concentration (ng/mL) of glycolipid in culture capable of inducing one-half maximal induction of nitrite (ED50). The lower the ED50 number, the greater the potency for iNOS induction. The ED50 was cacluated according to methods set out in Johnson et al., (1999) J Med Chem. 42: 4640-4649.

[9] = versus control sera receiving antigen alone

Compound	Serum Titers IgG [1]	Serum Titers IgG1 [1]	Serum Titers IgG2a [1]	Serum Titers IgG2b [1]	Pyrogenicity (total rise of 3 rabbits) [3]	Serum Titers IgG [4]	Serum Titers IgG1 [4]	Serum Titers IgG2a [4]	Serum Titers IgG2b [4]	Serum Titers IgG1 [5]	Serum Titers IgG2a [5]	titers to HBsAg, in words [5]	relative induction of IL-1β [6]	other results
CCCCCCCCCCCCCC(=O)O[C@H](CCCCCCCCCCC)CC(=O)N[C@H]1[C@H](OC[C@@H]2CCCN2C(=O)C[C@@H](CCCCCCCCCCC)OC(=O)CCCCCCCCCCCCC)O[C@H](CO)[C@@H](OP(=O)(O)O)[C@@H]1OC(=O)C[C@@H](CCCCCCCCCCC)OC(=O)CCCCCCCCCCCCC [Compound II, N-[(R)-3-tetradecanoyloxytetradecanoyl]-(S)-2-pyrrolidinylmethyl 2-deoxy-4-O-phosphono-2-[(R)-3-tetradecanoyloxytetradecanoylamino]-3-O-[(R)-3-tetradecanoyloxytetradecanoyl]-β-D-glucopyranoside triethylammonium salt]	51,200	102,400	25,600	6400	0.3 °C	409,600	204,800	409,600	51,200	32,000	2,048,000	increased titers compared to the control group	≤ 0.05	titers to FluZone, in words [1, 9]: significantly higher than control sera receiving antigen alone; induction of TNF-α, in words ([2]; Compound II at 1, 5 and 10 μg/ml): did not produce levels of TNF-α that could be detected; also recorded: without inducing detectable levels; fever response in the rabbit pyrogen test, in words ([3]; i.v. 10 μg/kg): apparent lack of fever; anti-HBsAg responses (serum titers), in words [4, 9]: significantly higher than control sera receiving antigen alone; induction of IL-1β, in words ([6]; ex vivo, human blood cells, 4 hr at 37° C., Compound II at 1, 5 and 10 μg/ml): did not produce detectable levels of IL-1β; also recorded: without inducing detectable levels
Monophosphoryl lipid A [MPL® immunostimulant, reference compound]	102,400	102,400	25,600	12,800	2-3 °C	409,600	204,800	204,800	51,200	128,000	1,024,000	–	1	dose that can be safely administered to humans ([7]; humans): at least 20 μg/kg; dose levels at which increases in temperature, flu-like symptoms, increasing heart rate and modest decreases in blood pressure can occur ([7]; some patients): ≥ 0.01 mg/kg; concentration effective at inducing TNF-α [2]: 100 to 10,000 ng/mL; iNOS induction / nitrite elaboration, in words [8]: high levels of nitrite elaboration
N-[(R)-3-tetradecanoyloxytetradecanoyl]-(S)-2-pyrrolidinylmethyl 2-deoxy-4-O-phosphono-2-[(R)-3-tetradecanoyloxytetradecanoylamino]-3-O-[(R)-3-tetradecanoyloxytetradecanoyl]-β-D-glucopyranoside triethylammonium salt [Compound II]	–	–	–	–	–	–	–	–	–	–	–	titers equivalent to the positive controls	–	–
